Assay results published in patent US6512123B2, “Tricyclic alkylhydroxamate derivatives” (Hoffmann-La Roche Inc., priority 2001, dated 2003).

Tests used:
[1] = test system: histone deacetylase (HDAC); assay: HDAC inhibition screening assay using an aminocoumarin derivative of an omega-acetylated lysine as substrate; type: biochemical; settings: compound concentration 10 nM
Procedure: To measure the inhibitory properties of the compounds of the invention, a screening assay was performed using an aminocoumarin derivative of an omega-acetylated lysine as substrate for the enzmye. This assay has been described in detail in the literature (Hoffmann, K., et al., Nucleic Acids Res. 27 (1999)2057-2058). Using the protocol described therein, there was measured the inhibitory effect of the compounds at a concentration of 10 nM.

Row | Structure (SMILES) | Inhibitory effect at 10 nM in % [1] [%] | melting point [°C]
1 | O=C(CCCCCCCOc1ccc2c(c1)C(O)c1ccccc1-2)NO (racemic) [Example 2, rac-8-(9-Hydroxy-9H-fluoren-2-yloxy)-octanoic Acid Hydroxyamide] | 79 | 
2 | O=C(CCCCCCCOc1ccc2c(c1)C(=O)c1ccccc1CO2)NO [Example 1, 8-(11-Oxo-6,1 1-Dihydro-dibenzo[b,e]oxepin-2-yloxy)-octanoic Acid Hydroxyamide] | 62 | 
3 | O=C(CCCCCCCOc1ccc2c(c1)[nH]c1ccccc12)NO [Example 3, 8-(9H-Carbazol-2-yloxy)-octanoic Acid Hydroxyamide] | 86 | 
4 | O=C(CCCCCCCOc1cccc2[nH]c3ccccc3c12)NO [Example 4, 8-(9H-Carbazol-4-yloxy)-octanoic Acid Hydroxyamide] | 97 | 
5 | O=C(CCCCCCOc1ccc2c(c1)[nH]c1ccccc12)NO [Example 5, 7-(9H-Carbazol-2-yloxy)-heptanoic Acid Hydroxyamide] | 100 | 198
6 | O=C(CCCCCOc1ccc2c(c1)[nH]c1ccccc12)NO [Example 6, 6-(9H-Carbazol-2-yloxy)-hexanoic Acid Hydroxyamide] | 80 | 192
7 | O=C(CCCCOc1ccc2c(c1)[nH]c1ccccc12)NO [Example 7, 5-(9H-Carbazol-2-yloxy)-pentanoic Acid Hydroxyamide] | 69 | 
